Reference: US20080051597A1, “Process for Producing 2-Methyladamantan-2-Yl (Meth)Acrylate and 2-Methyladamantan-2-Yl (Meth)Acrylate” (Mitsubishi Chemical Corporation, priority 2004, published 2008)

Experiment: Solubility of methyleneadamantane in organic compound
Type: physicochemical
Details: supernatant analysed by gas chromatography
Protocol: To a predetermined amount of an organic solvent was added 2-methyleneadamantane in such an amount that it remains in the solvent after dissolution. After stirring the mixture while keeping the temperature at 0° C., the resulting mixture was allowed to stand. A supernatant was collected therefrom and its composition was analyzed by gas chromatography.
The solubility of 2-methyleneadamantane and the amount of 2-methyleneadamantane in the reaction product were measured by gas chromatography analysis described below. • Gas chromatography analyzer: “GC-14B”, product of Shimadzu Corporation • Column: “TC-1”, product of Tokyo Chemical Industry (inner diameter: 0.25 mm, thickness of filler: 0.25 μm, length: 60 m) • Feed port temperature: 150° C. • Detector: FID • Detector temperature: 280° C. • Conditions of column oven: The column oven was retained at 100° C. for 3 minutes, heated to 180° C. at 10° C./min, retained at 180° C. for 5 minutes, heated to 280° C. at 10° C./min, and then retained at 280° C. for 5 minutes.

## C=C1C2CC3CC(C2)CC1C3 [methyleneadamantane, 2-methyleneadamantane]
  solubility of methyleneadamantane in 100 g of n-undecane at 0° C.: 101 g
